Source: PubChem BioAssay AID2060906 (Molecular Pharmacology Branch, DTP, NCI, 2025)

Test system: 485176-168-R4-J1-PDC complex spheroid growth
Assay: Anticancer human tumor 485176-168-R4-J1-PDC patient-derived pancreatic adenocarcinoma cell line growth inhibition [RAS]
Settings: for IC50: curve of first compound; for viability, T/C: stronger effect = lower value
In short: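 Multi-cell-type spheroids: tumor cells plus HUVEC endothelial cells and mesenchymal stem cells. RAS-pathway inhibitors were combined with targeted agents, each dosed in half-log steps down from clinical Cmax, or from 10 microM when Cmax was unknown.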

[1] = second compound 0.000949 µM, first compound 0.0316 µM
[2] = second compound 0.000949 µM, first compound 0.1 µM
[3] = second compound 0.000949 µM, first compound 0.316 µM
[4] = second compound 0.000949 µM, first compound 1 µM
[5] = second compound 0.000949 µM, first compound 3.16 µM
[6] = second compound 0.000949 µM, first compound 10 µM
[7] = second compound 0.003 µM, first compound 0.0316 µM
[8] = second compound 0.003 µM, first compound 0.1 µM
[9] = second compound 0.003 µM, first compound 0.316 µM
[10] = second compound 0.003 µM, first compound 1 µM
[11] = second compound 0.003 µM, first compound 3.16 µM
[12] = second compound 0.003 µM, first compound 10 µM
[13] = second compound 0.00949 µM, first compound 0.0316 µM
[14] = second compound 0.00949 µM, first compound 0.1 µM
[15] = second compound 0.00949 µM, first compound 0.316 µM
[16] = second compound 0.00949 µM, first compound 1 µM
[17] = second compound 0.00949 µM, first compound 3.16 µM
[18] = second compound 0.00949 µM, first compound 10 µM
[19] = second compound 0.03 µM, first compound 0.0316 µM
[20] = second compound 0.03 µM, first compound 0.1 µM
[21] = second compound 0.03 µM, first compound 0.316 µM
[22] = second compound 0.03 µM, first compound 1 µM
[23] = second compound 0.03 µM, first compound 3.16 µM
[24] = second compound 0.03 µM, first compound 10 µM
[25] = second compound 0.0949 µM, first compound 0.0316 µM
[26] = second compound 0.0949 µM, first compound 0.1 µM
[27] = second compound 0.0949 µM, first compound 0.316 µM
[28] = second compound 0.0949 µM, first compound 1 µM
[29] = second compound 0.0949 µM, first compound 3.16 µM
[30] = second compound 0.0949 µM, first compound 10 µM
[31] = second compound 0.3 µM, first compound 0.0316 µM
[32] = second compound 0.3 µM, first compound 0.1 µM
[33] = second compound 0.3 µM, first compound 0.316 µM
[34] = second compound 0.3 µM, first compound 1 µM
[35] = second compound 0.3 µM, first compound 3.16 µM
[36] = second compound 0.3 µM, first compound 10 µM
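Further: spheroids exposed to compounds for seven days before readout.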
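Wherever viability, T/C is given: luminescence viability expressed relative to DMSO vehicle wells set as 100%.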

**Q.** For `CC(=O)OC12COC1CC(O)C1(C)C(=O)C(O)C3=C(C)C(OC(=O)C(O)C(NC(=O)OC(C)(C)C)c4ccccc4)CC(O)(C(OC(=O)c4ccccc4)C21)C3(C)C` (centres undefined) + CCn1c(-c2cc(N3CCN(C)CC3)cnc2C(C)OC)c2c3cc(ccc31)-c1csc(n1)CC(NC(=O)C1CC1C)C(=O)N1CCCC(N1)C(=O)OCC(C)(C)C2, which IC50 (second compound 0.000949 µM) is on record?
**A.** < 31.6 nM

**Q.** What about the IC50 (second compound 0.003 µM) of the same compound?
**A.** < 31.6 nM

**Q.** And the IC50 (second compound 0.00949 µM)?
**A.** < 31.6 nM

**Q.** And the IC50 (second compound 0.03 µM)?
**A.** < 31.6 nM

**Q.** And the IC50 (second compound 0.0949 µM)?
**A.** < 31.6 nM

**Q.** What about the IC50 (second compound 0.3 µM) of the same compound?
**A.** < 31.6 nM

**Q.** What about the viability, T/C [1] of the same compound?
**A.** 16.7%

**Q.** And the viability, T/C [2]?
**A.** 15.2%

**Q.** What about the viability, T/C [3] of the same compound?
**A.** 13.1%

**Q.** What about the viability, T/C [4] of the same compound?
**A.** 13.9%

**Q.** And the viability, T/C [5]?
**A.** 15.6%

**Q.** And the viability, T/C [6]?
**A.** 19.6%

**Q.** And the viability, T/C [7]?
**A.** 14.1%

**Q.** What about the viability, T/C [8] of the same compound?
**A.** 13.2%

**Q.** And the viability, T/C [9]?
**A.** 10.9%

**Q.** What about the viability, T/C [10] of the same compound?
**A.** 15.5%

**Q.** And the viability, T/C [11]?
**A.** 13.1%

**Q.** What about the viability, T/C [12] of the same compound?
**A.** 17.9%

**Q.** What about the viability, T/C [13] of the same compound?
**A.** 17.2%

**Q.** And the viability, T/C [14]?
**A.** 12.8%

**Q.** What about the viability, T/C [15] of the same compound?
**A.** 12.7%

**Q.** What about the viability, T/C [16] of the same compound?
**A.** 12.8%

**Q.** What about the viability, T/C [17] of the same compound?
**A.** 13.2%

**Q.** What about the viability, T/C [18] of the same compound?
**A.** 20.1%

**Q.** And the viability, T/C [19]?
**A.** 12.3%

**Q.** What about the viability, T/C [20] of the same compound?
**A.** 13.4%

**Q.** What about the viability, T/C [21] of the same compound?
**A.** 13.8%

**Q.** What about the viability, T/C [22] of the same compound?
**A.** 10.8%

**Q.** And the viability, T/C [23]?
**A.** 16.5%

**Q.** And the viability, T/C [24]?
**A.** 21%

**Q.** And the viability, T/C [25]?
**A.** 14.2%

**Q.** What about the viability, T/C [26] of the same compound?
**A.** 11.9%

**Q.** And the viability, T/C [27]?
**A.** 11.8%

**Q.** What about the viability, T/C [28] of the same compound?
**A.** 9.97%

**Q.** What about the viability, T/C [29] of the same compound?
**A.** 14.9%

**Q.** What about the viability, T/C [30] of the same compound?
**A.** 15.9%

**Q.** And the viability, T/C [31]?
**A.** 15.5%

**Q.** What about the viability, T/C [32] of the same compound?
**A.** 13.1%

**Q.** And the viability, T/C [33]?
**A.** 9.69%

**Q.** And the viability, T/C [34]?
**A.** 12.8%

**Q.** What about the viability, T/C [35] of the same compound?
**A.** 15.8%

**Q.** And the viability, T/C [36]?
**A.** 14.7%

**Q.** Which results are given for `CCC(CC)c1cc(NC2CCC(N)C2)n2nccc2n1` (centres undefined) + CCn1c(-c2cc(N3CCN(C)CC3)cnc2C(C)OC)c2c3cc(ccc31)-c1csc(n1)CC(NC(=O)C1CC1C)C(=O)N1CCCC(N1)C(=O)OCC(C)(C)C2?
**A.** IC50 (second compound 0.000949 µM): 1130 nM; IC50 (second compound 0.003 µM): 1260 nM; IC50 (second compound 0.00949 µM): 1070 nM; IC50 (second compound 0.03 µM): 925 nM; IC50 (second compound 0.0949 µM): 1040 nM; IC50 (second compound 0.3 µM): 1000 nM; viability, T/C [1]: 92.1%; viability, T/C [2]: 83.7%; viability, T/C [3]: 84.7%; viability, T/C [4]: 55.9%; viability, T/C [5]: 1.96%; viability, T/C [6]: 0.46%; viability, T/C [7]: 94.5%; viability, T/C [8]: 94.3%; viability, T/C [9]: 100%; viability, T/C [10]: 62.4%; viability, T/C [11]: 1.91%; viability, T/C [12]: 0.43%; viability, T/C [13]: 106%; viability, T/C [14]: 78.7%; viability, T/C [15]: 89.1%; viability, T/C [16]: 53.4%; viability, T/C [17]: 1.09%; viability, T/C [18]: 0.36%; viability, T/C [19]: 83.6%; viability, T/C [20]: 84.1%; viability, T/C [21]: 82.8%; viability, T/C [22]: 47.6%; viability, T/C [23]: 1.14%; viability, T/C [24]: 0.38%; viability, T/C [25]: 77.5%; viability, T/C [26]: 89%; viability, T/C [27]: 68.5%; viability, T/C [28]: 53%; viability, T/C [29]: 0.88%; viability, T/C [30]: 0.45%; viability, T/C [31]: 81.4%; viability, T/C [32]: 70%; viability, T/C [33]: 71.7%; viability, T/C [34]: 50.1%; viability, T/C [35]: 0.86%; viability, T/C [36]: 0.45%
